Data reported in patent US8999957B2, “Heterocyclic compounds as ERK inhibitors” (Merck Sharp & Dohme Corp., priority 2010, dated 2015).
Values joined by “and” are separate entries in the source; they are usually repeats but may differ in a detail not shown here. Identical values can stand only once. Like-named read-outs stand apart in the source and are kept apart here.

Biological target: fully phosphorylated, mouse aERK2 enzyme (Mus musculus (Mouse), UniProt P63085)
Experiment: Active ERK2 (aERK) IMAP-FP assay, condition 2
Assay type: biochemical
Method in brief: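 Phosphorylation by fully phosphorylated mouse ERK2 ran 40-45 min, then quenched with IMAP beads (1:1000) in binding buffer; fluorescence polarization read after 30 min binding equilibration.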

[1] = aERK assay condition 2, 30 uM ATP, read-out: aERK IC50
[2] = active ERK2, read-out: aErk2 Ic50

Sequence of fully phosphorylated, mouse aERK2 enzyme (P63085 whole entry): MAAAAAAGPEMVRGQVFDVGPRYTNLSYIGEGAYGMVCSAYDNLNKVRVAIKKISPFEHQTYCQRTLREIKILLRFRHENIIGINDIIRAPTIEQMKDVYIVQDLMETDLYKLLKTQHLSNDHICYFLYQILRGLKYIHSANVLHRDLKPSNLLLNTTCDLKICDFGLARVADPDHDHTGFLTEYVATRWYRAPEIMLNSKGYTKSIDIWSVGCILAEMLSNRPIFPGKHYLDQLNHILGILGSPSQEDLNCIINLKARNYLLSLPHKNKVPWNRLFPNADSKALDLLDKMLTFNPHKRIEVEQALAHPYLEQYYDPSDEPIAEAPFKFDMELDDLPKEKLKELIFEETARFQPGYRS

| Molecule | IC50 [1] | IC50 [2] |
| --- | --- | --- |
| NC(=O)C(c1c(F)cccc1F)N1CCC[C@@H](NC(=O)c2ccc3[nH]nc(-c4ccncc4)c3c2)C1 (single isomer, unassigned) [drawing 504, N-((R)-1-((S or R)-2-amino-1-(2,6-difluorophenyl)-2-oxoethyl)piperidin-3-yl)-3-(pyridin-4-yl)-1H-indazole-5-carboxamide] | 35.3 nM | – |
| N-{(3R,6S)-1-(2-fluoro-6-methoxybenzyl)-6- [(2-methylhydrazino)carbonyl]piperidin-3- yl}-3-(2-methylpyridin-4-yl)-1H-indazole-5- carboxamide | – | 20.2 nM and 30 nM |
| COc1cccc(F)c1CN1C[C@H](NC(=O)c2ccc3[nH]nc(-c4ccnc(C)c4)c3c2)CC[C@H]1C(=O)NCCOCc1ccccc1 [N-[(3R,6S)-6-{[2-(benzyloxy)ethyl]-carbamoyl}-1-(2-fluoro-6-methoxybenzyl)-piperidin-3-yl]-3-(2-methylpyridin-4-yl)-1H-indazole-5-carboxamide] | – | 121 nM |
| COc1cccc(F)c1CN1C[C@H](NC(=O)c2ccc3[nH]nc(-c4ccnc(C)c4)c3c2)CC[C@H]1C(=O)N(C)OC [N-{(3R,6S)-1-(2-fluoro-6-methoxybenzyl)-6-[methoxy(methyl)carbamoyl]piperidin-3-yl}-3-(2-methylpyridin-4-yl)-1H-indazole-5-carboxamide] | – | 11.2 nM |
| COc1cccc(F)c1CN1C[C@H](NC(=O)c2ccc3[nH]nc(-c4ccc5nn(C)cc5c4)c3c2)CC[C@H]1C(=O)N1CC(F)(F)C1 | – | 22.8 nM |
| COc1cccc(F)c1CN1C[C@H](NC(=O)c2ccc3[nH]nc(-c4ccnc(C)c4)c3c2)CC[C@H]1C(=O)NCCO [N-{(3R,6S)-1-(2-fluoro-6-methoxybenzyl)-6-[(2-hydroxyethyl)carbamoyl]piperidin-3-yl}-3-(2-methylpyridin-4-yl)-1H-indazole-5-carboxamide] | – | 5.6 nM |
| COc1cccc(F)c1CN1C[C@H](NC(=O)c2ccc3[nH]nc(-c4ccnc(C)c4)c3c2)CC[C@H]1C(=O)N1CCOCC1 [N-[(3R,6S)-1-(2-fluoro-6-methoxybenzyl)-6-(morpholin-4-ylcarbonyl)piperidin-3-yl]-3-(2-methylpyridin-4-yl)-1H-indazole-5-carboxamide] | – | 18.2 nM |
| COc1cccc(F)c1CN1C[C@H](NC(=O)c2ccc3[nH]nc(-c4ccnc(C)c4)c3c2)CC[C@H]1C(=O)NN(C)C [N-[(3R,6S)-6-[(2,2-dimethylhydrazino)-carbonyl]-1-(2-fluoro-6-methoxybenzyl)-piperidin-3-yl]-3-(2-methylpyridin-4-yl)-1H-indazole-5-carboxamide] | – | 12.2 nM |
| O=C(N[C@@H]1CC[C@@H](C(=O)NCc2ccccc2)N(Cc2ccccc2)C1)c1ccc2[nH]nc(-c3ccncc3)c2c1 [N-[(3R,6S)-1-benzyl-6-(benzylcarbamoyl)piperidin-3-yl]-3-pyridin-4-yl-1H-indazole-5-carboxamide] | – | 47.5 nM |
| COc1cccc(F)c1CN1C[C@H](NC(=O)c2ccc3[nH]nc(-c4ccc5nc(C)sc5c4)c3c2)CC[C@H]1C(=O)N1CC(F)(F)C1 [N-[(3R,6S)-6-[(3,3-difluoroazetidin-1-yl)carbonyl]-1-(2-fluoro-6-methoxybenzyl)-piperidin-3-yl]-3-(2-methyl-1,3-benzothiazol-6-yl)-1H-indazole-5-carboxamide] | – | 47.4 nM |
| Cc1cc(-c2n[nH]c3ccc(C(=O)N[C@@H]4CC[C@@H](C(=O)N(C)C)N(Cc5c(F)cccc5F)C4)cc23)ccn1 [N-[(3R,6S)-1-(2,6-difluorobenzyl)-6-(dimethylcarbamoyl)piperidin-3-yl]-3-(2-methylpyridin-4-yl)-1H-indazole-5-carboxamide] | – | 74 nM |
| COc1cccc(F)c1CN1C[C@H](NC(=O)c2ccc3[nH]nc(-c4ccnc(C)c4)c3c2)CC[C@H]1C(=O)N1CCCO1 [N-[(3R,6S)-1-(2-fluoro-6-methoxybenzyl)-6-(isoxazolidin-2-ylcarbonyl)piperidin-3-yl]-3-(2-methylpyridin-4-yl)-1H-indazole-5-carboxamide] | – | 10.5 nM |
| COc1cccc(F)c1CN1C[C@H](NC(=O)c2ccc3[nH]nc(-c4ccnc(C)c4)c3c2)CC[C@H]1C(N)=O [N-[(3R,6S)-6-carbamoyl-1-(2-fluoro-6-methoxybenzyl)piperidin-3-yl]-3-(2-methylpyridin-4-yl)-1H-indazole-5-carboxamide] | – | 1 nM |
| Cc1cc(-c2n[nH]c3ccc(C(=O)N[C@@H]4CC[C@@H](C(=O)N(C)C)N(Cc5ccccc5F)C4)cc23)ccn1 [N-[(3R,6S)-6-(dimethylcarbamoyl)-1-(2-fluorobenzyl)piperidin-3-yl]-3-(2-methylpyridin-4-yl)-1H-indazole-5-carboxamide] | – | 39.4 nM |
| COc1cccc(F)c1CN1C[C@H](NC(=O)c2ccc3[nH]nc(-c4ccnc(C)c4)c3c2)CC[C@H]1C(=O)N1CCN(C(=O)OC2CCOCC2)CC1 [tetrahydro-2H-pyran-4-yl 4-{[(2S,5R)-1-(2-fluoro-6-methoxybenzyl)-5-({[3-(2-methylpyridin-4-yl)-1H-indazol-5-yl]carbonyl}amino)piperidin-2-yl]carbonyl}piperazine-1-carboxylate] | – | 18.8 nM |
| CCCN(CCC)C(=O)[C@@H]1CC[C@@H](NC(=O)c2ccc3[nH]nc(-c4ccnc(C)c4)c3c2)CN1Cc1c(F)cccc1OC [N-[(3R,6S)-6-(dipropylcarbamoyl)-1-(2-fluoro-6-methoxybenzyl)piperidin-3-yl]-3-(2-methylpyridin-4-yl)-1H-indazole-5-carboxamide] | – | 141 nM |
| CCOC(=O)N1CCN(C(=O)[C@@H]2CC[C@@H](NC(=O)c3ccc4[nH]nc(-c5ccnc(C)c5)c4c3)CN2Cc2c(F)cccc2OC)CC1 [ethyl 4-{[(2S,5R)-1-(2-fluoro-6-methoxy-benzyl)-5-({[3-(2-methylpyridin-4-yl)-1H-indazol-5-yl]carbonyl}amino)piperidin-2-yl]carbonyl}piperazine-1-carboxylate] | – | 20.5 nM |
| CNC(=O)[C@@H]1CC[C@@H](NC(=O)c2ccc3[nH]nc(-c4ccnc(C)c4)c3c2)CN1Cc1c(F)cccc1OC [N-[(3R,6S)-1-(2-fluoro-6-methoxybenzyl)-6-(methylcarbamoyl)piperidin-3-yl]-3-(2-methylpyridin-4-yl)-1H-indazole-5-carboxamide] | – | 2.7 nM |
| COc1cccc(F)c1CN1C[C@H](NC(=O)c2ccc3[nH]nc(-c4ccnc(C)c4)c3c2)CC[C@H]1C(=O)N1CCN(C(=O)OC(C)(C)C)CC1 [tert-butyl 4-{[(2S,5R)-1-(2-fluoro-6-methoxy-benzyl)-5-({[3-(2-methylpyridin-4-yl)-1H-indazol-5-yl]carbonyl}amino)piperidin-2-yl]carbonyl}piperazine-1-carboxylate] | – | 7 nM |
| COC(=O)[C@@H](c1c(F)cccc1F)N1CCC[C@@H](NC(=O)c2ccc3[nH]nc(-c4ccncc4)c3c2)C1 [(R)-methyl 2-(2,6-difluorophenyl)-2-((R)-3-(3-(pyridin-4-yl)-1H-indazole-5-carboxamido)piperidin-1-yl)acetate] | 2200 nM | – |
| COc1cccc(F)c1CN1C[C@H](NC(=O)c2ccc3[nH]nc(-c4ccnc(C)c4)c3c2)CC[C@H]1C(=O)N1CCN(C(=O)OC2(C)CC2)CC1 [1-methylcyclopropyl 4-{[(2S,5R)-1-(2-fluoro-6-methoxybenzyl)-5-({[3-(2-methylpyridin-4-yl)-1H-indazol-5-yl]carbonyl}amino)piperidin-2-yl]carbonyl}piperazine-1-carboxylate] | – | 22.1 nM |
| [2H]C([2H])([2H])Oc1cccc(F)c1CN1C[C@H](NC(=O)c2ccc3[nH]nc(-c4ccnc(C)c4)c3c2)CC[C@H]1C(=O)N1CCN(C(=O)OC(C)(C)C)CC1 | – | 12.2 nM |
| CCCCN(CCCC)C(=O)[C@@H]1CC[C@@H](NC(=O)c2ccc3[nH]nc(-c4ccnc(C)c4)c3c2)CN1Cc1c(F)cccc1OC [N-[(3R,6S)-6-(dibutylcarbamoyl)-1-(2-fluoro-6-methoxybenzyl)piperidin-3-yl]-3-(2-methylpyridin-4-yl)-1H-indazole-5-carboxamide] | – | 502 nM |
| CNC(=O)C(c1ccccc1F)N1CCC[C@@H](NC(=O)c2ccc3[nH]nc(-c4ccncc4)c3c2)C1 (single isomer, unassigned) [drawing 502, N-((R)-1-((S or R)-1-(2-fluorophenyl)-2-(methyl-amino)-2-oxoethyl)piperidin-3-yl)-3-(pyridin-4-yl)-1H-indazole-5-carboxamide] | 4.6 nM | – |
| COc1cccc(F)c1CN1C[C@H](NC(=O)c2ccc3[nH]nc(-c4ccnc(C)c4)c3c2)CC[C@H]1C(=O)NC1(C)CC1 [N-{(3R,6S)-1-(2-fluoro-6-methoxybenzyl)-6-[(1-methylcyclopropyl)carbamoyl]piperidin-3-yl}-3-(2-methylpyridin-4-yl)-1H-indazole-5-carboxamide] | 4.7 nM | – |
| COc1cccc(F)c1CN1C[C@H](NC(=O)c2ccc3[nH]nc(-c4ccnc(C)c4)c3c2)CC[C@H]1C(=O)N(C)C1CC1 [N-[(3R,6S)-6-[cyclopropyl(methyl)carbamoyl]-1-(2-fluoro-6-methoxybenzyl)piperidin-3-yl]-3-(2-methylpyridin-4-yl)-1H-indazole-5-carboxamide] | 2.5 nM | – |
| COc1cccc(F)c1CN1C[C@H](NC(=O)c2ccc3[nH]nc(-c4ccnc(C)c4)c3c2)CC[C@H]1C(=O)NC[C@@H]1CC[C@@H](O)C1 [N-[(3R,6S)-1-(2-fluoro-6-methoxybenzyl)-6-({[(1R,3R)-3-hydroxycyclopentyl]methyl}carbamoyl)piperidin-3-yl]-3-(2-methylpyridin-4-yl)-1H-indazole-5-carboxamide] | 1.5 nM | – |
| COc1cccc(F)c1CN1C[C@H](NC(=O)c2ccc3[nH]nc(-c4ccnc(C)c4)c3c2)CC[C@H]1C(=O)NOC(C)(C)C [N-[(3R,6S)-6-(tert-butoxycarbamoyl)-1-(2-fluoro-6-methoxybenzyl)piperidin-3-yl]-3-(2-methylpyridin-4-yl)-1H-indazole-5-carboxamide] | – | 26.2 nM |
| [2H]C([2H])([2H])Oc1cccc(F)c1CN1C[C@H](NC(=O)c2ccc3[nH]nc(-c4ccc5nc(C)sc5c4)c3c2)CC[C@H]1C(=O)N1CCN(C(C)=O)CC1 | – | 63.1 nM |
